Assay results published in patent publication US6037463A, “Enzymatic RNA molecules that cleave mutant N-RAS” (priority 1996, dated 2000).

Assays:
[1] = test system: synthetic oligoribonucleotide substrate of 15 nucleotides, mutant N-ras mRNA (codon 13); experiment: Kinetics with synthetic substrates (multiple turnover), ribozymes against mutant N-ras; assay type: biochemical; settings: Table IA, Michaelis-Menten conditions; for kcat: 37° C., 10 mM MgCl2
Protocol: (§1) In one investigation, short synthetic oligoribonucleotides of 15 nucleotides chain length served as substrates. Cleavage kinetics of all ribozymes were carried out under Michaelis-Menten conditions. […] Ribozymes RE990 or RE1035 against the wild type mRNA as well as their substrate complexes on the other hand reveal Tm values of approximately 52° C.
(§2) Kinetic constants Km and kcat were determined from Eadie-Hofstee plots carried out with 5'-^32 P-labeled substrate. The RNA substrate was labeled by reaction with T4 polynucleotide kinase and [γ-^32P]-ATP. 5'-end labeled substrate was purified from [γ-^32 P]-ATP with CENTRICON-3 tubes. Ribozyme and substrate were heated separately for 1 min at 75° C. in 50 mM Tris-Cl (pH 7.5). After cooling to 37° C. for 5 min, 100 mM MgCl2 were added to a final concentration of 10 mM, and the solution was incubated for an additional 5 min at 37° C. Multiple turnover reactions were carried out in a volume of 100 μl with concentrations of substrate between 20-500 nM and ribozyme concentrations from 2 to 5 nM in 50 mM Tris-Cl (pH 7.5) and 10 mM MgCl2 at 37° C. Reactions were initiated by addition of ribozyme. The reaction was stopped by mixing the ribozymes with an equal volume of stop solution (8 M urea, 25 mM EDTA). The cleavage reactions were analyzed on 20% denaturing polyacrylamide gels (8 M urea) and scanned on a Molecular Dynamic Phosphorimaging system.

[2] = test system: in vitro transcribed wild type N-ras mRNA; experiment: Kinetics with in vitro transcribed RNA (single-turnover), wild type; assay type: biochemical; settings: for cleavage of wild type N-ras mRNA: ribozymes directed against mutant mRNA
Text: (§3) In a further investigation, RNA containing the mutant or wild type N-ras sequence from transcription initiation site to termination site was synthesized by in vitro transcription. In order to achieve efficient mRNA cleavage, the target sequence of the substrate (NUX-triplet, N=A,G,C,U; X=C,A,U) is not allowed to be double-stranded or part of a stable hairpin. The in vitro transcribed RNA served as substrate for five ribozymes mentioned above. The catalytic efficiency was examined under "single-turnover" conditions to detect the splice products.
(§4) For in vitro transcription, pMS5-NRAS, pMS5A-NRAS and pMS5B-NRAS were linearized by EcoRI digestion, phenol-extracted and ethanol-precipitated. Transcription was carried out in a 100 μl mixture containing 50 ng/μl linearized plasmid DNA, 10 mM DTT, 40 mM Tris-Cl (pH 7.5), 50 mM NaCl, 8 mM MgCl2, 2 mM spermidine, 500 μM rNTP's, 0.8 U/μl RNAse-lnhibitor, 2 μCi/μl [α-^32 P]-ATP and 2.5 U/μl T7 RNA Polymerase. A one-hour incubation at 37° C. was followed by the addition of 25 Units of DNAsel, and the mixture was incubated for an additional 30 min at 37° C. After subsequent phenol extraction, the aqueous phase was transferred into a CENTRICON-100 tube and centrifuged at 3,400 U/min for 30 min. The RNA-solution was checked for homogeneity by UV absorption and 6% analytical PAGE (8 M urea). The solution was stored frozen at -20° C.
(§5) The cleavage efficiency under "single-turnover" conditions was determined in a volume of 10 μl using 20-1200 nM ribozyme, 50 mM Tris-Cl (pH 7.5) and 10 mM MgCl2. The reaction was initiated by addition of RNA substrate to a final concentration of 10 nM substrate over 1 h at 37° C. The reaction was stopped by mixing 8 μl of stop solution to each reaction. The reaction was analyzed on 6% denaturing polyacrylamide gels and scanned on a Molecular Dynamics Phosphor Imager. The single turnover kcat /Km values were determined as described by Heidenreich et al., J. Biol. Chem. 267:1904 (1992).

[3] = test system: in vitro transcribed mutant N-ras mRNA (codon 13); experiment: Kinetics with in vitro transcribed RNA (single-turnover), mutant; assay type: biochemical
Text: as §3, §4, §5

[4] = test system: synthetic substrate, mutant N-ras mRNA (codon 13); experiment: Melting curves (Tm) of ribozyme-substrate complexes, mutant; assay type: binding; settings: ribozyme-substrate complex
Protocol: as §1
(§6) UV temperature curves were measured at 260 nm using a Varian Cary-1 UV/VIS-spectrophotometer. The target was prepared by dissolving the ribozyme in a buffer containing 50 mM Tris-Cl (pH 7.5) and 10 mM MgCl2. The sample was transferred in a cuvette with a 10 mm path length. The ribozyme was denatured at 80° C. for 5 min, and subsequently the substrate RNA and substrate DNA were added and the whole mixture was renatured at 1° C./min. Melting curves at 260 nm were performed by heating the solution in the cuvette at 0.75° C./min and acquiring absorbance data every 0.5° C. step until 80° C. was reached. The Tm value and thermodynamic parameters of transition were obtained by fitting data of a two transition state model with the GraFit version 2.0 from Sigma Chemicals Co. software using the method of Marky and Breslauer, Biopolymers 26:1601 (1987).

[5] = test system: N-ras transformed NIH3T3 cells (mutation in codon 13, clones 2 and 4); experiment: Colony-forming soft agar assay, retrovirally mediated ribozyme; assay type: cell-based; settings: beyond the effect of the retroviral vector alone
Protocol: The cells of the constitutively N-ras expressing clones 2 and 4 (mutation in codon 13) were subcultured in soft agar using the colony-forming agar assay of Cowley et al., Cell 77:841 (1994). The colony-forming agar assay is a semisolid method in which cells are suspended in a 0.3% agar upper layer and plated out over a 0.5% agar lower layer in Petri dishes. The lower layer was prepared by heating a 2.5% solution of agar in deionized water. After cooling the agar to 45° C. in a water bath, an agar mix of 0.5% agar was prepared by combining 25 ml of 1×DMEM medium, 10 ml of 2.5% agar, 10 ml of 2×DMEM medium, and 5 ml of fetal calf serum. One milliliter samples of the agar mix were pipetted into 35 mm Petri culture dishes and stored at 4° C. for 30 minutes.
The upper layer was prepared by adding 0.2 ml of agar mix to 1 ml of about 5×10^4 cells/ml suspension, and adding DMEM medium to a total volume of 1.7 ml. One milliliter samples were pipette onto bottom agar layers and incubated for 14-21 days at 37° C. […]
The soft agar cultures were incubated for […] at 37° C. and 5% CO2. The reduction in transformed N-ras NIH3T3 cells was analyzed by counting cell clusters under a microscope. The soft agar preparations were set up in quadruplicate for each construct and the mean values were calculated, as presented in Table VII.

[6] = test system: synthetic oligoribonucleotide substrate of 15 nucleotides, wild-type N-ras mRNA (codon 64, 89 or 103); experiment: Kinetics with synthetic substrates (multiple turnover), ribozymes against wild-type N-ras; assay type: biochemical; settings: for Km / kcat: Table IA, Michaelis-Menten conditions; for kcat: 37° C., 10 mM MgCl2
Protocol: as §1, §2

[7] = test system: synthetic substrate, wild type N-ras mRNA; experiment: Melting curves (Tm) of ribozyme-substrate complexes, wild type; assay type: binding; settings: ribozyme-substrate complex
Protocol: as §1, §6

[8] = Table IIA, single-turnover, transcribed N-ras mRNA
[9] = Table III, modified ribozymes, transcribed N-ras mRNA
[10] = Table IIB, single-turnover, transcribed RNA

Substance | Km [1] [µM] | kcat [1] [s⁻¹] | cleavage of wild type N-ras mRNA [2] | Km [3, 8] [µM] | kcat [3, 8] | Km [3, 9] [µM] | kcat [3, 9] | Tm [4] | Km [6] [µM] | kcat [6] [s⁻¹] | Km [2, 8] [µM] | kcat [2, 8] | Tm [7] | also measured
5'-CCAACACCUGAUGAGCGUUAGCGAAACCUGCU-3' (chemistry not given here) | 0.082 | 0.015 | do not cleave | 0.071 | 266 10^6 × s^-1 | 0.071 | 266 10^6 × s^-1 | approximately 48 °C |  |  |  |  |  | reversion of the malignant phenotype [5]: about 18%
5'-UCCCAACCUGAUGAGCGUUAGCGAAACACCUG-3' (chemistry not given here) | 0.065 | 0.012 | do not cleave | 0.113 | 137 10^6 × s^-1 | 0.113 | 137 10^6 × s^-1 | approximately 48 °C |  |  |  |  |  | Km [3, 10]: 0.113 µM; kreact [3, 10]: 137 10^6 s^-1
RE917: ribozyme against codon 64 of the wild-type N-ras mRNA, SEQ ID NO:14 (GGCACUGCUGAUGAGCGUUAGCUAAACUCUUC; chemistry not given here) |  |  |  |  |  |  |  |  | 0.078 | 0.013 | 0.063 | 59 10^6 × s^-1 |  | Km [2, 10]: 0.063 µM; kreact [2, 10]: 59 10^6 s^-1; Km [2, 9]: 0.063 µM; kcat [2, 9]: 59 10^6 × s^-1
RE990: ribozyme against codon 89 of the wild-type N-ras mRNA, SEQ ID NO:15 (CGCAAAUCUGAUGAGCGUUAGCGAAACUUGCU; chemistry not given here) |  |  |  |  |  |  |  |  | 0.404 | 0.004 | 0.234 | 72 10^6 × s^-1 | approximately 52 °C | kcat /Km [6]: much less catalytic efficiency
RE1035: ribozyme against codon 103 of the wild-type N-ras mRNA, SEQ ID NO:16 (AGUCUUUCUGAUGAGCGUUAGCGAAACUCGCU; chemistry not given here) |  |  |  |  |  |  |  |  | 0.277 | 0.013 | 0.425 | 44 10^6 × s^-1 | approximately 52 °C | 
